# Source: ChEMBL document CHEMBL4177734, “Cytotoxic quinazoline alkaloids from the seeds of Peganum harmala” (Bioorg Med Chem Lett, 2018)
# Experiments:
# Assay type in all cases: functional, cell-based; call rule not given here
# PC-3 = experiment: Cytotoxicity against human PC3 cells assessed as reduction in cell viability by MTT assay
# HL-60 = experiment: Cytotoxicity against human HL60 cells assessed as reduction in cell viability by trypan blue method
# SGC-7901 = experiment: Cytotoxicity against human SGC7901 cells assessed as reduction in cell viability by MTT assay
# [1] = Cytotoxicity against mouse Sp2/0-Ag14 cells
# [2] = Cytotoxicity against Med-merk carcinoma cells (unknown origin)
# [3] = Homo sapiens, PC-3, read-out: IC50
# [4] = Homo sapiens, HL-60, read-out: IC50
Structure (SMILES),IC50 (PC-3; [3]) [µM],IC50 (HL-60; hl-60),IC50 (SGC-7901),IC50 (PC-3; pc-3),IC50 (HL-60; [4]) [µM],IC50 [1] [µM],IC50 [2] [µM]
O[C@@H]1CCN2Cc3ccccc3N=C12,15.4,Not Active,Not Active,–,–,–,–
O=c1c2ccccc2nc2n1CC[C@@H]2O,–,–,Not Active,Not Active,67.8,–,–
COC(=O)CCn1cnc2ccccc2c1=O,–,Not Active,Not Active,Not Active,–,–,–
O=c1c2cc(O)ccc2nc2n1CC[C@H]2O,–,Not Active,Not Active,Not Active,–,–,–
O=c1c2cc(O)ccc2nc2n1CC[C@@H]2O,–,Not Active,Not Active,Not Active,–,–,–
O=c1c2ccccc2nc2n1CC[C@@H]2O[C@@H]1O[C@H](CO[C@@H]2O[C@H](CO)[C@@H](O)[C@H](O)[C@H]2O)[C@@H](O)[C@H](O)[C@H]1O,–,Not Active,Not Active,Not Active,–,–,–
O=c1c2ccccc2nc2n1CC[C@@H]2O[C@@H]1O[C@H](CO)[C@@H](O)[C@H](O)[C@H]1O,–,Not Active,Not Active,Not Active,–,–,–
Nc1ccccc1CN1CC[C@@H](O[C@@H]2O[C@H](CO[C@@H]3O[C@H](CO)[C@@H](O)[C@H](O)[C@H]3O)[C@@H](O)[C@H](O)[C@H]2O)C1=O,–,Not Active,Not Active,Not Active,–,–,–
O=c1[nH]c(CCCO)nc2ccccc12,–,Not Active,Not Active,Not Active,–,–,–
O=c1c2ccccc2nc2n1CC[C@H]2O[C@@H]1O[C@H](CO[C@@H]2O[C@H](CO)[C@@H](O)[C@H](O)[C@H]2O)[C@@H](O)[C@H](O)[C@H]1O,–,Not Active,Not Active,Not Active,–,–,–
Nc1ccccc1CN1CC[C@H](O[C@@H]2O[C@H](CO[C@@H]3O[C@H](CO)[C@@H](O)[C@H](O)[C@H]3O)[C@@H](O)[C@H](O)[C@H]2O)C1=O,–,–,Not Active,Not Active,42.8,–,–
Nc1ccccc1CN1CC[C@@H](O)C1=O,–,–,Not Active,Not Active,42.3,–,–
Nc1ccccc1CN1CC[C@H](O)C1=O,–,–,Not Active,Not Active,42.3,–,–
O=c1c2ccccc2nc2n1CC[C@H]2O,–,–,Not Active,Not Active,67.8,–,–
O=c1c2ccccc2nc2n1CCC2O (racemic),–,–,–,–,–,19.2,25.3
O=c1c2ccccc2nc2n1CCC2 [DEOXYVASICINONE],–,Not Active,Not Active,Not Active,–,–,–
O=c1[nH]cnc2ccccc12 [QUINAZOLINONE],–,Not Active,Not Active,Not Active,–,–,–
O[C@H]1CCN2Cc3ccccc3N=C12 [VASICINE],15.4,Not Active,Not Active,–,–,–,–
